The assay relates to IFN-a/Jak1 Tyk2. The experiment in a line: Co-stimulation assay in lysed whole blood: IFNa (JAK1/TYK2) stimulated STAT1 phosphorylation. It is filed as cell-based. The following applies: Homo sapiens, 20 min, 100 ng/mL IFNa (with 10 ng/mL GM-CSF), pSTAT by flow cytometry. The procedure:
Example 12: Co-Stimulation Assay in Lysed Whole Blood; JAK2: GM-CSF Stimulated STAT5 Phosphorylation and JAK1/TYK2 Stimulated STAT1 Phosphorylation Assay
Human Blood Lysis Using Abcam's RBC Lysis Buffer
Dilute RBC lysis buffer to 1× in distilled water. Add 2 mL blood to 38 mL of 1×RBC-lysis buffer. Incubate for 15 mins at RT, in dark. Spin at 300 g, 5 mins, to collect the pellet. Re-lyse if necessary. Re-suspend pellet in 5 mL of cRPMI.
Compound and Cytokine Treatment
Aliquot 80 μL of lysed human blood in to wells of 96 deep-well plate. Add 10 μl of (10× conc.) of different concentrations of compounds to all wells except controls (unstained and unstimulated) and mix it with the help of 100 uL multichannel. Add 10 uL of RPMI media in controls. For dilution of compounds and dilution range please refer Appendix. Incubate on water bath or CO2 incubator for 1 hour at 37° C. Add 10 μl of (10× conc.) of cytokine mix (GM-CSF and IFNa) (final conc.10 ng/mL of GM-CSF and 100 ng/mL of IFNa) to each well except unstimulated and unstained controls and incubate further for 20 minutes on water bath at 37° C.
Add 900 μL of prewarmed 1× Fix/Lyse solution (Appendix) and mix it properly using 1000 μl multichannel, incubate further on water bath at 37° C. for 10 minutes (which includes time of addition). Centrifuge at 800×g for 5 minutes at 40° C.; remove 900 uL of supernatant and add 900 μL of 1×PBS. Centrifuge at 800×g for 5 minutes at 40° C., remove 900 μL of supernatant. Wash one more time with 900 μL of PBS (optional) and resuspend pellets in 100 uL of PBS.
Disrupt the pellet by gentle tapping and resuspend in 1000 μL of BD Phosflow Perm Buffer III and incubate plate on ice for 30 minutes. Centrifuge plate at 800×g for 5 minutes at 40° C. Wash two more times with 1000 μL of BD Pharmingen Stain Buffer.
Disrupt the pellet by gentle tapping. Resuspend pellets in 100 uL of Stain Buffer and add 5 μL of pSTAT5_AF488 Ab and 5 uL of pSTAT_PE in all wells except unstained control and mix properly using 200 μl multichannel, incubate overnight at […]. Add 900 μL of wash buffer and centrifuge at 1800 rpm for 3 minutes at 40° C. Wash one more time with 1000 μL of BD Pharmingen Stain Buffer. Finally resuspend the pellet in 300 uL of BD Pharmingen Stain Buffer. Transfer the cells to 96-well v-bottom plate and acquire the cells in Beckman Coulter CytExpert. Acquiring cells in Flow Cytometer: Keep the threshold value to 250 and cell concentration should not exceed 100-500 cells/μL. Acquire at least 5,000-10,000 cells.
RPMI 1640 Complete Medium: RPMI 1640 media+10% FBS.
Cytokine dilution: 1) GM-CSF Stock at 100 ug/mL. Prepare an intermediate dilution of 1 ug/mL by adding 2 uL of stock into 198 uL of cRPMI. Further dilute to 100 ng/mL by adding 100 uL of the intermediate stock to 900 uL of cRPMI. 2) IFNa Stock at 200 ug/mL. Dilute IFNa stock 1:200 by adding 5 uL of stock into the 1000 uL of 100 ng/mL GM-CSF working stock as above to give a combined working stock of 1000 ng/mL of IFNa and 100 ng/mL GM-CSF (10×). Keep it on ice until used.
Lyse/Fix buffer preparation: Dilute 5× Lyse/Fix buffer to 1× using MQ water and keep at 37° C. until used.
BD Phosflow perm buffer III: Keep on ice/fridge.
In general terms: In flow cytometry, cells or beads pass a laser one at a time.

Where only a bound is given, the exact number is not on record here.

A word on the IC50: it is the midpoint of a concentration-inhibition curve. A low value points to higher potency.

`CNc1cc(Nc2cc(F)cc3c2OCCO3)nc2c(NC(=O)N[C@H]3C[C@H]3F)cnn12` [Compound 42, 1-(5-((7-fluoro-2,3-dihydrobenzo[b][1,4]dioxin-5-yl)amino)-7-(methylamino)pyrazolo[1,5-a]pyrimidin-3-yl)-3-((1S,2R)-2-fluorocyclopropyl)urea]: the IC50 was below 1 µM.

For the compound `CNc1cc(Nc2cccc3c2OCCO3)nc2c(NC(=O)NC3CCC3C#N)cnn12` (centres unmarked) [Compound 43, 1-(2-cyanocyclobutyl)-3-(5-((2,3-dihydrobenzo[b][1,4]dioxin-5-yl)amino)-7-(methylamino)pyrazolo[1,5-a]pyrimidin-3-yl)urea], the 50% inhibitory concentration (IC50) is 1 to 10 µM.

In turn, `CNc1cc(Nc2cccc3nccnc23)nc2c(NC(=O)N[C@@H]3C[C@@H]3F)cnn12` [Compound 44, 1-((1R,2S)-2-fluorocyclopropyl)-3-(7-(methylamino)-5-(quinoxalin-5-ylamino)pyrazolo[1,5-a]pyrimidin-3-yl)urea] gave an IC50 below 1 µM.

Compound `CNc1cc(Nc2cccc3c2OCCO3)nc2c(NC(=O)N[C@@H]3C[C@@H]3C#N)cnn12` [Compound 45, 1-((1R,2S)-2-cyanocyclopropyl)-3-(5-((2,3-dihydrobenzo[b][1,4]dioxin-5-yl)amino)-7-(methylamino)pyrazolo[1,5-a]pyrimidin-3-yl)urea] yielded a concentration for half-maximal inhibition (IC50) below 1 µM.

In turn, `CNc1cc(Nc2cc(F)cc3c2OCCO3)nc2c(NC(=O)NC3CCC3C#N)cnn12` (centres unmarked) [Compound 46, 1-(2-cyanocyclobutyl)-3-(5-((7-fluoro-2,3-dihydrobenzo[b][1,4]dioxin-5-yl)amino)-7-(methylamino)pyrazolo[1,5-a]pyrimidin-3-yl)urea] showed a half-maximal inhibitory concentration (IC50) of 1 to 10 µM.

Turning to `CNc1cc(Nc2cccc3c2OCCO3)nc2c(NC(=O)NC3CC(CO)C3)cnn12` (centres unmarked) [Compound 47, 1-(5-((2,3-dihydrobenzo[b][1,4]dioxin-5-yl)amino)-7-(methylamino)pyrazolo[1,5-a]pyrimidin-3-yl)-3-(3-(hydroxymethyl)cyclobutyl)urea], the IC50 was below 1 µM.

`CNc1cc(Nc2cccc3c2OCCO3)nc2c(NC(=O)NC3CC(C)(O)C3)cnn12` (centres unmarked) [Compound 48, 1-(5-((2,3-dihydrobenzo[b][1,4]dioxin-5-yl)amino)-7-(methylamino)pyrazolo[1,5-a]pyrimidin-3-yl)-3-(3-hydroxy-3-methylcyclobutyl)urea] displayed an IC50 of at least 10 µM.

`[2H]C([2H])([2H])Nc1cc(Nc2cc(F)cc3c2OCCO3)nc2c(NC(=O)N[C@@H]3C[C@@H]3F)cnn12` [Compound 49, 1-(5-((7-fluoro-2,3-dihydrobenzo[b][1,4]dioxin-5-yl)amino)-7-((methyl-d3)amino)pyrazolo[1,5-a]pyrimidin-3-yl)-3-((1R,2S)-2-fluorocyclopropyl)urea] registered a 50% inhibitory concentration (IC50) below 1 µM.

Consider `CNc1cc(Nc2cccc3occc23)nc2c(NC(=O)N[C@@H]3C[C@@H]3F)cnn12` [Compound 50, 1-(5-(benzofuran-4-ylamino)-7-(methylamino)pyrazolo[1,5-a]pyrimidin-3-yl)-3-((1R,2S)-2-fluorocyclopropyl)urea], for which the IC50 was below 1 µM.

Turning to `CNc1cc(Nc2cc(F)cc3c2OCCO3)nc2c(NC(=O)N[C@@H]3C[C@@H]3C#N)cnn12` [Compound 51, 1-((1R,2S)-2-cyanocyclopropyl)-3-(5-((7-fluoro-2,3-dihydrobenzo[b][1,4]dioxin-5-yl)amino)-7-(methylamino)pyrazolo[1,5-a]pyrimidin-3-yl)urea], the half-inhibitory concentration (IC50) is below 1 µM.

Compound `CNc1c(F)c(Nc2cccc3c2OCCO3)nc2c(NC(=O)N[C@@H]3C[C@@H]3F)cnn12` [Compound 55, 1-(5-((2,3-dihydrobenzo[b][1,4]dioxin-5-yl)amino)-6-fluoro-7-(methylamino)pyrazolo[1,5-a]pyrimidin-3-yl)-3-((1R,2S)-2-fluorocyclopropyl)urea] came in with an IC50 of at least 10 µM.

Compound `CNc1cc(-c2cn(C3CCOCC3)c3ncccc23)nc2c(NC(=O)N[C@H]3CC[C@H]3O)cnn12` [Compound 56, 1-((1S,2R)-2-hydroxycyclobutyl)-3-(7-(methylamino)-5-(1-(tetrahydro-2H-pyran-4-yl)-1H-pyrrolo[2,3-b]pyridin-3-yl)pyrazolo[1,5-a]pyrimidin-3-yl)urea] showed an IC50 of at least 10 µM.

In turn, `CNc1cc(-c2cn(C(C)C)c3ncccc23)nc2c(NC(=O)N[C@H]3CC[C@H]3O)cnn12` [Compound 57, 1-((1S,2R)-2-hydroxycyclobutyl)-3-(5-(1-isopropyl-1H-pyrrolo[2,3-b]pyridin-3-yl)-7-(methylamino)pyrazolo[1,5-a]pyrimidin-3-yl)urea] returned an IC50 of 1 to 10 µM.

`CNc1cc(-c2cn(C(C)C)c3ncccc23)nc2c(NC(=O)NC3CC3O)cnn12` (centres unmarked) [Compound 58, 1-(2-hydroxycyclopropyl)-3-(5-(1-isopropyl-1H-pyrrolo[2,3-b]pyridin-3-yl)-7-(methylamino)pyrazolo[1,5-a]pyrimidin-3-yl)urea]: the concentration for half-maximal inhibition (IC50) was at least 10 µM.

With `CNc1cc(Nc2cccc3c2OCCO3)nc2c(NC(=O)N[C@H]3CC[C@H]3O)cnn12` [Compound 59, 1-(5-((2,3-dihydrobenzo[b][1,4]dioxin-5-yl)amino)-7-(methylamino)pyrazolo[1,5-a]pyrimidin-3-yl)-3-((1S,2R)-2-hydroxycyclobutyl)urea], the IC50 lay in the range of 1 to 10 µM.

For the compound `CNc1cc(Nc2cc(C)cc(C)c2)nc2c(NC(=O)N[C@@H]3C[C@@H]3F)cnn12` [Compound 60, 1-(5-((3,5-dimethylphenyl)amino)-7-(methylamino)pyrazolo[1,5-a]pyrimidin-3-yl)-3-((1R,2S)-2-fluorocyclopropyl)urea], the IC50 is at least 10 µM.

`CNc1cc(Nc2c(F)c(F)cc3c2OCCO3)nc2c(NC(=O)N[C@@H]3C[C@@H]3F)cnn12` [Compound 61, 1-(5-((6,7-difluoro-2,3-dihydrobenzo[b][1,4]dioxin-5-yl)amino)-7-(methylamino)pyrazolo[1,5-a]pyrimidin-3-yl)-3-((1R,2S)-2-fluorocyclopropyl)urea]: the IC50 is at least 10 µM.

In turn, `CNC(=O)Nc1cnn2c(NC)cc(Nc3cccc4c3OCCN4C)nc12` [Compound 62, 1-methyl-3-(5-((4-methyl-3,4-dihydro-2H-benzo[b][1,4]oxazin-8-yl)amino)-7-(methylamino)pyrazolo[1,5-a]pyrimidin-3-yl)urea] returned a concentration for half-maximal inhibition (IC50) of 1 to 10 µM.

The compound `CNC(=O)Nc1cnn2c(NC)cc(Nc3cccc(Cl)c3OC)nc12` [Compound 63, 1-(5-((3-chloro-2-methoxyphenyl)amino)-7-(methylamino)pyrazolo[1,5-a]pyrimidin-3-yl)-3-methylurea] registered an IC50 of 1 to 10 µM.

Compound `CNC(=O)Nc1cnn2c(NC)cc(Nc3cccc4cccnc34)nc12` [Compound 64, 1-methyl-3-(7-(methylamino)-5-(quinolin-8-ylamino)pyrazolo[1,5-a]pyrimidin-3-yl)urea] registered an IC50 below 1 µM.

`CNC(=O)Nc1cnn2c(NC)cc(Nc3cc(F)cc4c3OCCO4)nc12` [Compound 65, 1-(5-((7-fluoro-2,3-dihydrobenzo[b][1,4]dioxin-5-yl)amino)-7-(methylamino)pyrazolo[1,5-a]pyrimidin-3-yl)-3-methylurea]: the IC50 was below 1 µM.

With `CNC(=O)Nc1cnn2c(NC)cc(Nc3c(C)cccc3OC)nc12` [Compound 66, 1-(5-((2-methoxy-6-methylphenyl)amino)-7-(methylamino)pyrazolo[1,5-a]pyrimidin-3-yl)-3-methylurea], the IC50 lay in the range of 1 to 10 µM.

For the compound `CNC(=O)Nc1cnn2c(NC)cc(Nc3cc(OC)ccc3OC)nc12` [Compound 67, 1-(5-((2,5-dimethoxyphenyl)amino)-7-(methylamino)pyrazolo[1,5-a]pyrimidin-3-yl)-3-methylurea], the IC50 was 1 to 10 µM.

(Values after US11753411B2, “Substituted pyrazolo[1,5-a]pyrimidines as TYK2 pseudokinase ligands” (Ventyx Biosciences, Inc., priority 2019, dated 2023).)
